These results are taken from patent publication US20260183274A1, “PDK1 REGULATORY COMPOUND AND COMPOSITION CONTAINING THE SAME” (PROVIBIO CO., LTD., priority 2024, published 2026).

Molecules are shown by their SMILES.

Common to all, as to type: cell-based
Series [1] has as its system Human B Lymphocyte cell line, SU-DHL-8. The series can be described thus: Relative cell viability CCK-8, SU-DHL-8. The following applies: for viability at 1 µM / viability at 10 µM / viability at 30 µM / viability at 50 µM: Homo sapiens, SU-DHL-8, 48 h; for viability at 1 µM: read-out: Relative cell viability (%), SU-DHL-8, 1 μM; for viability at 10 µM: read-out: Relative cell viability (%), SU-DHL-8, 10 μM; for viability at 30 µM: read-out: Relative cell viability (%), SU-DHL-8, 30 μM; for viability at 50 µM: read-out: Relative cell viability (%), SU-DHL-8, 50 μM. The method, boiled down:
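Cells grown in RPMI-1640 with 10% FBS, treated with compound at several concentrations, then given CCK-8 for 4 h at 37° C. Viability expressed as percent of DMSO-treated cells.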

Series [2] concerns T cells isolated from mouse spleens. The series can be described thus: T cell proliferation inhibition (CFSE flow cytometry, anti-CD3/anti-CD28 stimulation). The following applies: mouse spleen T cells, 3 days; for inhibition at 0.01 µM / inhibition at 0.1 µM / inhibition at 1 µM / inhibition at 10 µM / inhibition at 30 µM / inhibition at 50 µM: Mus musculus, T-cell, 72 h, read-out: Proliferation inhibition rate (%). The method, boiled down: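 Proliferation inhibition (%) came from flow cytometry of CFSE dilution after 3 days' culture at 37 °C with compound (10 nM, 100 nM, 1, 10, 30, 50 μM; triplicate wells). Cells were magnetically purified T cells from C57BL/6 mouse spleens, 2×10^5 per well, stimulated with 0.5 μg/mL each anti-CD3 and anti-CD28.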

Series [3] relates to Human Head and Neck cancer, Fadu. Description: Relative cell viability CCK-8, Fadu. The following applies: Fadu cells, relative to untreated cells; for viability at 1 µM / viability at 10 µM / viability at 30 µM / viability at 50 µM: Homo sapiens, FaDu. The protocol: Human-derived head and neck cancer cell line Fadu and osteosarcoma cell line Saos-2 were cultured in MEM medium containing 10% FBS, 100 U/mL penicillin, and 100 μg/mL streptomycin.
(§1) Following stabilization, the cells were harvested using Trypsin-EDTA treatment, centrifuged at 1,200 rpm for 3 minutes, the supernatant was removed, and the cells were resuspended in the same medium. They were then seeded into a 96-well plate (Costar 96-well cell culture plate, Corning) at 100 μL per well, and the conditions were adjusted as indicated in Table 5.
(§2) The cells were cultured in a 5% CO2 incubator at 37° C. for 24 hours, and after stabilization of the cells, each plate was washed with 200 μL of PBS per well and treated with 50 μL of culture medium per well.
(§3) After that, 10 μL of CCK-8 was added to each well, and the plate was incubated again at 37° C. in a 5% CO2 incubator for 2 hours.
(§4) In other words, when the survival rate of untreated cells (DMSO) is set at 100%, the relative cell survival rate in each group treated with the drug at different concentrations is indicated.

Series [4] concerns Human Pancreas Adenocarcinoma cell line, AsPC-1. The series can be described thus: Relative cell viability CCK-8, AsPC-1. The following applies: 48 hours. As to the method: (§5) Human-derived breast cancer cell line MCF-7, human-derived lung cancer cell line A549, human-derived colorectal cancer cell line HCT-116, human pancreatic cancer cell line AsPC-1, glioblastoma cell line A172, and melanoma cell line Malme-3M were obtained from the Korean Cell Bank. gastric cancer cell line SNU-719, and bladder cancer cell line T24 were cultured in RPMI-1640 medium containing 10% FBS.
as §1, §2, §3, §4

In series [5] the test system is Human Bladder cancer cell, T24. The series can be described thus: Relative cell viability CCK-8, T24. The following applies: Homo sapiens, 48 h. As to the method:
as §5, §1, §2, §3, §4

Setting [6] is: 48 hours, untreated (DMSO) = 100%.
Where [7] appears, read: 1 μM, 48 hours, untreated (DMSO) = 100%.
The mark [8] stands for this setting: 10 μM, 48 hours, untreated (DMSO) = 100%.
Setting [9] is: 30 μM, 48 hours, untreated (DMSO) = 100%.
Where [10] appears, read: 50 μM, 48 hours, untreated (DMSO) = 100%.

Regarding `Nc1ncccc1C(=O)NCCCCCCCCCCCCN1CCC(O)CC1` [Compound 47, 2-Amino-N-(12-(4-hydroxypiperidin-1-yl)dodecyl)nicotinamide], the viability (commonly a read-out of living cells in per cent, often relative to untreated cells) at 1 µM stood at 11.7% in series [1] (setting [6]) and 10% in series [3] (1 μM). Also, the results for the viability at 10 µM in series [1] (setting [6]) and in series [3] (10 μM) were 10% and 19.9%, respectively. Also, the viability at 30 µM in series [1] (setting [6]) came to 9.4%; in series [3] (30 μM), 7.34%. Besides, the viability at 50 µM was determined as 8.33% in series [1] (setting [6]) and 5.02% in series [3] (50 μM). In addition, the inhibition at 0.01 µM in series [2] (compound 10 nM) was -28.8%. Besides, the inhibition at 0.1 µM in series [2] (compound 100 nM) stood at 100%. In series [2] (compound 1 μM), the inhibition at 1 µM came out at 100%. In series [2] (compound 10 μM), the inhibition at 10 µM turned out to be 100%. Besides, the inhibition at 30 µM in series [2] (compound 30 μM) is 100%. Besides, the inhibition at 50 µM in series [2] (compound 50 μM) amounted to 100%.

As for `Nc1ncccc1C(=O)NCCCCCCCCCCCCN1CCc2ccccc21` [Compound 89, 2-Amino-N-(12-(indolin-1-yl)dodecyl)nicotinamide], the viability at 1 µM worked out at 30.3% in series [4] (ASPC1, 1 μM) and 1.33% in series [1] (setting [6]). Besides, the viability at 10 µM in series [4] (ASPC1, 10 μM) was 19.2%; in series [1] (setting [6]) it was 0.82%. Moreover, the viability at 30 µM in series [4] (ASPC1, 30 μM) was found to be 17.8%; in series [1] (setting [6]) it was 0.48%. Moreover, the viability at 50 µM in series [4] (ASPC1, 50 μM) is 17.8%. For the same compound, the “Relative cell viability (%), SU-DHL-8” value in series [1] (human, 48 h, 50 µM) was −0.86%. Also, the inhibition at 0.01 µM in series [2] (compound 10 nM) was -3.34%. For the same compound, in series [2] (compound 100 nM), the inhibition at 0.1 µM was 100%. The inhibition at 1 µM in series [2] (compound 1 μM) amounted to 100%. Besides, the inhibition at 10 µM in series [2] (compound 10 μM) is 100%. Also, the inhibition at 30 µM in series [2] (compound 30 μM) turned out to be 100%. Besides, in series [2] (compound 50 μM), the inhibition at 50 µM amounted to 100%.

In the case of `Nc1ncccc1C(=O)NCCCCCCCCCCCCN1CCC(c2ccc([N+](=O)[O-])cc2)CC1` [Compound 44, 2-Amino-N-(12-(4-(4-nitrophenyl)piperidin-1-yl)dodecyl)nicotinamide], in series [1] (setting [6]), the viability at 1 µM turned out to be 6.14%, the viability at 10 µM amounted to 4.91%, the viability at 30 µM worked out at 2.54% and the viability at 50 µM came to 1.41%. Moreover, in series [2] (compound 10 nM), the inhibition at 0.01 µM was -6.21%. The inhibition at 0.1 µM in series [2] (compound 100 nM) was 100%. Moreover, the inhibition at 1 µM in series [2] (compound 1 μM) amounted to 100%. In series [2] (compound 10 μM), the inhibition at 10 µM came to 100%. The inhibition at 30 µM in series [2] (compound 30 μM) came to 100%. Further, the inhibition at 50 µM in series [2] (compound 50 μM) is 100%. The same compound yielded a viability at 1 µM in series [3] (1 μM) of 1.22%. The viability at 10 µM in series [3] (10 μM) was found to be 5.89%. Further, the viability at 30 µM in series [3] (30 μM) is 2.94%.

For `Cl.Nc1ncccc1C(=O)NCCCCCCCCCCCCN1CC[C@H](N)C1` [Compound 50, (S)-2-Amino-N-(12-(3-aminopyrrolidin-1-yl)dodecyl) nicotinamide hydrochloride], the “Relative cell viability (%), SU-DHL-8” value in series [1] (setting [7]) came out at 9.20%; in series [1] (setting [8]), 8.18%; in series [1] (setting [9]), 6.18%; in series [1] (setting [10]), 4.31%. Besides, the “Proliferation inhibition rate (%)” value in series [2] (compound 10 nM) is −7.48%; in series [2] (compound 100 nM) it was 100.00%; in series [2] (compound 1 μM) it was 100.00%; in series [2] (compound 10 μM), 100.00%; in series [2] (compound 30 μM) it was 100.00%; in series [2] (compound 50 μM), 100.00%. The “Relative cell viability (%)” value in series [3] (1 μM) came to 20.78%; in series [3] (10 μM), 26.55%; in series [3] (30 μM), 23.42%; in series [3] (50 μM) it was 7.05%.

Turning to `Nc1ncccc1C(=O)NCCCCCCCCCCCCN1CCN(CCO)CC1` [Compound 54, 2-Amino-N-(12-(4-(2-hydroxyethyl)piperazin-1-yl)dodecyl) nicotinamide], the “Relative cell viability (%), SU-DHL-8” value in series [1] (setting [7]) stood at 6.42%; in series [1] (setting [8]) it was 4.05%; in series [1] (setting [9]), 3.26%; in series [1] (setting [10]), 2.23%. For the same compound, the “Proliferation inhibition rate (%)” value in series [2] (compound 10 nM) is −43.03%; in series [2] (compound 100 nM), 100.00%; in series [2] (compound 1 μM), 100.00%; in series [2] (compound 10 μM), 100.00%; in series [2] (compound 30 μM) it was 100.00%; in series [2] (compound 50 μM), 100.00%. In addition, the “Relative cell viability (%)” value in series [3] (1 μM) came to 24.97%; in series [3] (10 μM) it was 33.03%; in series [3] (30 μM), 32.41%; in series [3] (50 μM), 18.65%.

On to `Cc1ccc(OC2CCN(CCCCCCCCCCCCNC(=O)c3cccnc3N)CC2)cc1` [Compound 51, 2-Amino-N-(12-(4-(p-tolyloxy)piperidin-1-yl)dodecyl) nicotinamide], for which the “Proliferation inhibition rate (%)” value in series [2] (compound 10 nM) was found to be 0.77%; in series [2] (compound 100 nM), 16.10%; in series [2] (compound 1 μM), 100.00%; in series [2] (compound 10 μM), 100.00%; in series [2] (compound 30 μM) it was 100.00%; in series [2] (compound 50 μM), 100.00%. For the same compound, the “Relative cell viability (%)” value in series [3] (1 μM) came to 24.93%; in series [3] (10 μM), 17.30%; in series [3] (50 μM) it was 7.69%.

Consider `CN(C)C1CCCCN(CCCCCCCCCCCCNC(=O)c2cccnc2N)C1` (stereo not drawn) [Compound 45, 2-Amino-N-(12-(3-(dimethylamino)azepan-1-yl)dodecyl)nicotinamide], for which the viability at 1 µM in series [1] (setting [6]) was 1.91%; in series [3] (1 μM), 29.8%; in series [5] (1 μM), 9.91%. Further, the figures for the viability at 10 µM in series [1] (setting [6]), in series [3] (10 μM) and in series [5] (10 μM) were 1.27%, 74.1% and 11%, respectively. The results for the viability at 30 µM in series [1] (setting [6]), in series [3] (30 μM) and in series [5] (30 μM) were 0.53%, 60% and 9.95%, respectively. Also, the “Relative cell viability (%), SU-DHL-8” value in series [1] (human, 48 h, 50 µM) is −1.31%. The inhibition at 0.01 µM in series [2] (compound 10 nM) turned out to be 0.16%. In addition, in series [2] (compound 100 nM), the inhibition at 0.1 µM was 100%. In addition, in series [2] (compound 1 μM), the inhibition at 1 µM was 100%. Besides, the inhibition at 10 µM in series [2] (compound 10 μM) is 100%. In series [2] (compound 30 μM), the inhibition at 30 µM is 100%. Further, the inhibition at 50 µM in series [2] (compound 50 μM) was determined as 100%. For the same compound, the results for the viability at 50 µM in series [3] (50 μM) and in series [5] (50 μM) were 18.2% and 9.04%, respectively.
